Laboratory results taken from ChEMBL document CHEMBL1124322, “Synthesis and alpha 2-adrenoceptor antagonist activity of some disulfonamidobenzoquinolizines” (J Med Chem, 1989).

molecular target: Adrenergic receptor alpha (Rattus norvegicus) (UniProt P15823+P23944+P43140+P22086+P19328+P22909); assay: Ratio of pA2 values at alpha-1 and alpha-2 adrenergic receptors.; assay type: protein assay

For `CCS(=O)(=O)NCCN([C@@H]1CCN2CCc3ccccc3[C@@H]2C1)S(C)(=O)=O`, which Ratio is on record?
Its Ratio is 120.

For `Cc1cccc(S(=O)(=O)N(CCNS(C)(=O)=O)[C@@H]2CCN3CCc4ccccc4[C@@H]3C2)c1`, which Ratio is on record?
Its Ratio is 40.

`CS(=O)(=O)NCCN([C@@H]1CCN2CCc3ccccc3[C@@H]2C1)S(=O)(=O)c1cccc([N+](=O)[O-])c1` was tested. Which Ratio did it give?
The Ratio was 10.

Which Ratio does the source give for `CCS(=O)(=O)N(CCNS(C)(=O)=O)[C@@H]1CCN2CCc3ccccc3[C@@H]2C1` here?
Its Ratio is 490.

molecular target: T1, Adrenergic receptor alpha-2 (Rattus norvegicus, UniProt P22086+P19328+P22909); assay: Antagonist activity against alpha-2 adrenergic receptor of rat vas deferens; assay type: functional, tissue-based
T1 sequence (P22086 whole entry): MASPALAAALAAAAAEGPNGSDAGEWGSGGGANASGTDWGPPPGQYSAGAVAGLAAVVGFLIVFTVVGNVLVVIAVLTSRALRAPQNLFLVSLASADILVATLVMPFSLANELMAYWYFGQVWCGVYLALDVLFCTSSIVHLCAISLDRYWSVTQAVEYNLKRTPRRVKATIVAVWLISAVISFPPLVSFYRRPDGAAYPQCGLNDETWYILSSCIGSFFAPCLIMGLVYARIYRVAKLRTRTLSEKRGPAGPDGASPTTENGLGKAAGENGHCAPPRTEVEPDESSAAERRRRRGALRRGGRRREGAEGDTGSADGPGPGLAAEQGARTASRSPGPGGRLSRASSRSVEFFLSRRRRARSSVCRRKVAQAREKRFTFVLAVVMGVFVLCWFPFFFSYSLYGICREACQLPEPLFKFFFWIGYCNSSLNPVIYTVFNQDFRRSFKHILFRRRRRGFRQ
T1 sequence (P19328 whole entry): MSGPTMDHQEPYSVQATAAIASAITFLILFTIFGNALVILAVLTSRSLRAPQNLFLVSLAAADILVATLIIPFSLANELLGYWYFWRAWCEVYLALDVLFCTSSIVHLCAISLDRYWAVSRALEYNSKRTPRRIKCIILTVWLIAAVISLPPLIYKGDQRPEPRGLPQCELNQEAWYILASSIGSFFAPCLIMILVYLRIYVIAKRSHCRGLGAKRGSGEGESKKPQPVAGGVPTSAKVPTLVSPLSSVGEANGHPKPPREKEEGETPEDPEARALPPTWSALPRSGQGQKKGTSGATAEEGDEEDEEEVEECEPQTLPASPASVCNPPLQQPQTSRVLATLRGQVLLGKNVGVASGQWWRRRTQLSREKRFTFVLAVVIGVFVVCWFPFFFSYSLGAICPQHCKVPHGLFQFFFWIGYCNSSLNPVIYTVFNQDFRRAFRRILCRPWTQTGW
T1 sequence (P22909 whole entry): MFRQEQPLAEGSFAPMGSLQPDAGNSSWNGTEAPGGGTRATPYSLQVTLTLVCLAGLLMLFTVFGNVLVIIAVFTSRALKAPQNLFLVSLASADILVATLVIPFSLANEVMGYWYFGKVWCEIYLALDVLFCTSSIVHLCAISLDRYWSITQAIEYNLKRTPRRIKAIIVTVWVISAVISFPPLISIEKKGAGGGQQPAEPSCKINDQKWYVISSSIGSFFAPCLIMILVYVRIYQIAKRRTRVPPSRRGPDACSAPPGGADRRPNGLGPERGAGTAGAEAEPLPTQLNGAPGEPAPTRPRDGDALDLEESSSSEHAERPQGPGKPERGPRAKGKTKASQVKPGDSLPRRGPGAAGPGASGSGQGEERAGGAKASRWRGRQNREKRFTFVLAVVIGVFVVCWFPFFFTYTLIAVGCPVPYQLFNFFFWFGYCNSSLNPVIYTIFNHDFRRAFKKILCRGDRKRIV

How did the pA2 turn out when `CS(=O)(=O)NCCN([C@@H]1CCN2CCc3ccccc3[C@@H]2C1)S(=O)(=O)c1ccc(Cl)cc1` was run?
The pA2 was 8.04.

molecular target: T2, Adrenergic receptor alpha-1 (Rattus norvegicus, UniProt P15823+P23944+P43140); assay: Antagonist activity against Alpha-1 adrenergic receptor of rat anococcygeus muscle; assay type: functional
T2 sequence (P15823 whole entry): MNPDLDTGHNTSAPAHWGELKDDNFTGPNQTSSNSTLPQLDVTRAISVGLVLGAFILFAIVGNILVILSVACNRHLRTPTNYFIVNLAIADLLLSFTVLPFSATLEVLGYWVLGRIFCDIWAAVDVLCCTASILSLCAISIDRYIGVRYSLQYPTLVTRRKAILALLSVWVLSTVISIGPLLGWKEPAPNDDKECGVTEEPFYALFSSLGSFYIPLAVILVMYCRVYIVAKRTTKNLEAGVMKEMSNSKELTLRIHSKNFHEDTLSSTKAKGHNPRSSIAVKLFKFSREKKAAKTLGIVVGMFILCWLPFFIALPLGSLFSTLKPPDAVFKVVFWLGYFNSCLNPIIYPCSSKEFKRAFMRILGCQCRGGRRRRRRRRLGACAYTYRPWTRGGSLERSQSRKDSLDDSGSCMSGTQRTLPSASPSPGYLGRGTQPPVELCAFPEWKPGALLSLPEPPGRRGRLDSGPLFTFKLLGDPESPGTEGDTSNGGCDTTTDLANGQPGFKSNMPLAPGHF
T2 sequence (P23944 whole entry): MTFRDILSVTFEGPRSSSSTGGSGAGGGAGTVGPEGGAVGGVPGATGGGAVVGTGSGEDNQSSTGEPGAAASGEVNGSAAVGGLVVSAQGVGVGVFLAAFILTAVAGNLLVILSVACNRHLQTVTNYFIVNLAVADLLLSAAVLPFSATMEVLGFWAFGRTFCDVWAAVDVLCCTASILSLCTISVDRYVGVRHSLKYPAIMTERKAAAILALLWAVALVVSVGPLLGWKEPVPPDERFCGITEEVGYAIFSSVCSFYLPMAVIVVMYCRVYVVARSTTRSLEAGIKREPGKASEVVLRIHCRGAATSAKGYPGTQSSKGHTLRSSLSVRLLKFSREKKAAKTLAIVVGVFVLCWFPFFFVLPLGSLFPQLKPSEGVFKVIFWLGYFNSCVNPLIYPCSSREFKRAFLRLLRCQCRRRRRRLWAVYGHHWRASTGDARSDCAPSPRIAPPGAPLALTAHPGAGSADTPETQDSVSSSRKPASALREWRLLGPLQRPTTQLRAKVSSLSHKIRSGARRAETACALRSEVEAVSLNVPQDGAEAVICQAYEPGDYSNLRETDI
T2 sequence (P43140 whole entry): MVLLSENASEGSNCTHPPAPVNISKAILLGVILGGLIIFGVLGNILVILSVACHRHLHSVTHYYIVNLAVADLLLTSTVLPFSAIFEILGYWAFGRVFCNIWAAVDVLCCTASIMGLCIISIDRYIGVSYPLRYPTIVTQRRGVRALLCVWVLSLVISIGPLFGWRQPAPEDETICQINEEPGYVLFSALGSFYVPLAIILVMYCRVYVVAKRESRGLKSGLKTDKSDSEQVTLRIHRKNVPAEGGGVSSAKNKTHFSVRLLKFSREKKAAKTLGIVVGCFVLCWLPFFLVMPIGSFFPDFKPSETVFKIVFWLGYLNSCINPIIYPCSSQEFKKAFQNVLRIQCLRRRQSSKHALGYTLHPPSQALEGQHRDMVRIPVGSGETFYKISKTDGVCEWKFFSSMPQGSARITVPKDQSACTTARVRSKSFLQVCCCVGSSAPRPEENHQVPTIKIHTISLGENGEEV

How did the pA2 turn out when `O=S(=O)(CCl)NCCN([C@@H]1CCN2CCc3ccccc3[C@@H]2C1)S(=O)(=O)CCl` was run?
The pA2 was 6.33.

For `CS(=O)(=O)N(CCNS(=O)(=O)CCl)[C@@H]1CCN2CCc3ccccc3[C@@H]2C1`, which pA2 is on record?
The pA2 was 6.2.

molecular target: T2, Adrenergic receptor alpha-1; assay: Antagonist activity against alpha-1 adrenergic receptor of rat anococcygeus muscle.; assay type: functional

How did the pA2 turn out when `CCS(=O)(=O)NCCN([C@@H]1CCN2CCc3ccccc3[C@@H]2C1)S(=O)(=O)c1ccc(C)cc1` was run?
The pA2 was 6.6.

Which pA2 does the source give for `CCS(=O)(=O)NCCN([C@@H]1CCN2CCc3ccccc3[C@@H]2C1)S(C)(=O)=O` here?
Its pA2 is 5.65.

Which pA2 does the source give for `Cc1cccc(S(=O)(=O)N(CCNS(C)(=O)=O)[C@@H]2CCN3CCc4ccccc4[C@@H]3C2)c1` here?
Its pA2 is 6.4.

How did the pA2 turn out when `CS(=O)(=O)NCCN([C@@H]1CCN2CCc3ccccc3[C@@H]2C1)S(=O)(=O)c1cccc([N+](=O)[O-])c1` was run?
The pA2 was 6.7.

How did the pA2 turn out when `CCS(=O)(=O)N(CCNS(C)(=O)=O)[C@@H]1CCN2CCc3ccccc3[C@@H]2C1` was run?
Its pA2 is 5.65.

molecular target: T1, Adrenergic receptor alpha-2; assay: Antagonism of rat alpha-2 adrenergic receptor from rat vas deferens; assay type: functional

How did the pA2 turn out when `CS(=O)(=O)N(CCNS(=O)(=O)C(F)(F)F)[C@@H]1CCN2CCc3ccccc3[C@@H]2C1` was run?
The pA2 was 6.4.

`O=S(=O)(CCl)NCCN([C@@H]1CCN2CCc3ccccc3[C@@H]2C1)S(=O)(=O)CCl` was tested. Which pA2 did it give?
Its pA2 is 8.

Which pA2 does the source give for `CCCS(=O)(=O)N(CCNS(=O)(=O)CC)[C@@H]1CCN2CCc3ccccc3[C@@H]2C1` here?
The pA2 was 8.1.

For `CS(=O)(=O)NCCCCN([C@@H]1CCN2CCc3ccccc3[C@@H]2C1)S(C)(=O)=O`, which pA2 is on record?
Its pA2 is 5.66.

Which pA2 does the source give for `CCS(=O)(=O)NCCN([C@@H]1CCN2CCc3ccccc3[C@@H]2C1)S(=O)(=O)c1ccc(C)cc1` here?
Its pA2 is 7.62.

Which pA2 does the source give for `CC(C)(CN([C@@H]1CCN2CCc3ccccc3[C@@H]2C1)S(C)(=O)=O)NS(C)(=O)=O` here?
Its pA2 is 6.14.

With `CCS(=O)(=O)NCCN([C@@H]1CCN2CCc3ccccc3[C@@H]2C1)S(C)(=O)=O` as the compound, how does the pA2 read?
The pA2 was 7.73.

For `Cc1cccc(S(=O)(=O)N(CCNS(C)(=O)=O)[C@@H]2CCN3CCc4ccccc4[C@@H]3C2)c1`, which pA2 is on record?
Its pA2 is 8.

For `CS(=O)(=O)NCCN([C@@H]1CCN2CCc3ccccc3[C@@H]2C1)S(=O)(=O)c1cccc([N+](=O)[O-])c1`, which pA2 is on record?
Its pA2 is 7.69.

`CCS(=O)(=O)N(CCNS(C)(=O)=O)[C@@H]1CCN2CCc3ccccc3[C@@H]2C1` was tested. Which pA2 did it give?
The pA2 was 8.34.

How did the pA2 turn out when `CS(=O)(=O)N(CCNS(=O)(=O)CCl)[C@@H]1CCN2CCc3ccccc3[C@@H]2C1` was run?
Its pA2 is 8.1.

tested on: Adrenergic receptor alpha (Rattus norvegicus); assay: Selectivity ratio towards alpha-2 and alpha1 expressed as antilog(alpha-2pA2-alpha-1pA2)

With `O=S(=O)(CCl)NCCN([C@@H]1CCN2CCc3ccccc3[C@@H]2C1)S(=O)(=O)CCl` as the compound, how does the Ratio read?
Its Ratio is 47.

Which Ratio does the source give for `CS(=O)(=O)N(CCNS(=O)(=O)CCl)[C@@H]1CCN2CCc3ccccc3[C@@H]2C1` here?
Its Ratio is 79.
